Assay results as given in US7429564B2, “Oral insulin therapy” (Emisphere Technologies, Inc., priority 2002, dated 2008).

Key:
serum glucose = assay: Effective clinical dose of delivery agent in humans (delivery efficiency); type: in vivo, human
Description: Next, delivery agents 1-3 were compared for the ability to efficiently transport an active agent across the GI mucosa in a biologically active form by determining the relationship between delivery agent dose, dose of active agent and the glucose response. The effective dose of delivery agent necessary to deliver a therapeutic dose of active agent and produce a therapeutic effect was measured. For delivery agent 3, the active agent was insulin, and the therapeutic effect was determined by the ability of the delivery agent/insulin combination to lower serum glucose by at least 10% within one hour post administration. For delivery agents 1 and 2, the active agent was heparin, and the therapeutic effect was determined by […]

[1] = Delivery agent plasma concentrations in monkeys after oral administration; type: in vivo
Description: Similar results were obtained when delivery agents 1-3 were administered orally to monkeys and the plasma concentrations of the delivery agents monitored over time and the AUC calculated.

[2] = Example 5: safety and tolerability; settings: 4-CNAB alone, oral 400-2000 mg
Description: (§2) Safety assessments included physical examinations, medical history, vital signs, 12-lead electrocardiogram (ECG) monitoring, laboratory evaluations and checking for adverse events. Activity parameters included blood glucose, insulin, C-peptide, and 4-CNAB plasma concentration measurements.

rhesus monkeys = settings: rhesus monkey, in vivo, 14 days
Description: (§1) The present invention comprising compositions of insulin and the delivery agent 4-CNAB was evaluated for safety and toxicity in a nonclinical program that included pharmacological screening, pharmacokinetic profiling, and toxicity assessments in rats and monkeys.

[3] = Example 7: 4-CNAB plasma concentrations; type: in vivo, human; settings: after start of meal intake; 200 or 400 mg 4-CNAB
Description: Blood samples for determination of 4-CNAB plasma concentrations (2 mL in sodium heparin tube) were drawn 10, 20, 30, 40, 60, 90, 120, 240 and 360 minutes after start of meal intake (9 samples per session). Blood samples for determination of insulin and C-peptide plasma concentrations (5 mL in sodium heparin tube) were drawn at −60 and −30 minutes, at time 0 (start of meal intake), and after 10, 20, 30, 40, 50, 60, 75, 90, 105, 120, 150, 180, 210, 240, 300, and 360 minutes (19 samples per session). Plasma concentrations of insulin were determined by a GLP-validated microparticle enzyme immunoassay (MEIA).

[4] = system: primary molecular targets; assay: Receptor binding screening assays
Description: as §1

[5] = Nonclinical pharmacokinetic studies of 4-CNAB; type: in vivo; settings: mice, rats and monkeys
Description: as §1

Genotoxicity studies = settings: four studies
Description: as §1

[6] = monkey, in vivo
[7] = design: species or system rats; settings: rat, in vivo, po
Description: Similarly, for a fixed oral dose of 4-CNAB, insulin absorption increases with increasing doses of insulin. Oral insulin absorption was evaluated in rats at varying doses of both insulin and 4-CNAB. […] The mean peak serum insulin levels were 31, 44, 85, and 132 μU/mL respectively. Insulin absorption was dose dependent and increased as the dose of insulin increased. […] The mean peak serum insulin levels were 9, 39, 103, and 157 μU/mL, respectively. Insulin absorption was dose dependent and increased as the dose of 4-CNAB increased.

[8] = in vivo, sc
Description: as §2
Example 6: safety = assay: Example 6: safety; design: species or system human; settings: in vivo
Description: Safety was monitored by vital sign measurements and documentation of adverse events (AE) during all visits throughout the study.
Safety data included AEs, laboratory data, vital signs, physical examinations, and ECGs. Vital signs (systolic and diastolic blood pressure, respiration rate, heart rate, and body temperature) for each treatment group were summarized at baseline (defined as the −30 min time point) and at the end of each study day.

plasma C-peptide = assay: Example 6: plasma C-peptide during glucose clamp; type: in vivo, human; settings: for C-peptide level, mean: 15 U SC
Description: During each study period, blood samples were collected for the determination of plasma insulin concentrations, plasma C-peptide and plasma glucose concentration. Sampling occurred from 6 hrs before dosing and continued for 6 hrs after the dose was administered. Blood samples were collected via a venous cannula. Blood samples were collected relative to the administration of the study drug (1) prior to study of drug administration at −1 and −0.5 hrs, (2) immediately after study drug administration (time 0), and (3) post administration of the study drug at 10, 20, 30, 40, 50 min, and 1, 1.25, 1.5, 1.75, 2, 2.5, 3, 3.5, 4, 5, and 6 hrs
Blood samples were collected from each patient during each treatment period for determination of plasma insulin concentrations, plasma C-peptide, and plasma glucose. Glucose infusion rates and blood glucose measurements were measured continuously during the glucose clamp procedure. All treatments were identical in their sample collection and monitoring periods for all visits. After a 6 hours pre-dose baseline period for stabilization of blood glucose concentrations at the desired clamp level, the clamp procedure after study drug administration lasted 6 hours.

O=C(O)CCCNC(=O)c1ccc(Cl)cc1O [4-CNAB, 4-[(4-chloro, 2-hydroxybenzoyl)amino]butanoic acid]
Effective clinical dose of delivery agent (serum glucose; active agent insulin, lowers serum glucose by at least 10% within one hour): 200 Mg | Fold more efficient in facilitating transit across the GI mucosa vs delivery agent 1 (serum glucose; effective dose ratio): approximately 12 fold | Fold more efficient in facilitating transport across the GI mucosa vs delivery agent 2 (serum glucose; effective dose ratio): 7.5 fold | Fold greater penetration of the GI mucosa vs delivery agent 1 ([1]; 300 mg oral each): more than 11 fold | Fold greater penetration of the GI mucosa vs delivery agent 2 ([1]; 300 mg oral each): more than 6 fold | AUC ([1]; monkey, plasma, oral, 300 mg): 499 ng·h/mL | Tolerability [2]: well tolerated | Highest proposed human dose (2000 mg) fold lower than NOAEL in monkeys (rhesus monkeys): 12-16 fold | 4-CNAB plasma concentration after 2 hours relative to level at 10 minutes [3]: less than 10% | Activity in receptor binding screening [4]: did not demonstrate potential activity in any of the primary molecular targets | Absorption after oral administration [5]: absorbed rapidly following oral administration, and subsequently cleared from the body | Genotoxicity findings (Genotoxicity studies): no positive findings

oral insulin alone: recombinant human zinc insulin given orally without delivery agent
Absolute bioavailability of insulin [6]: ≤ 1% | Change in serum insulin levels [7]: did not result in any significant increases in serum insulin levels

SC insulin: human regular insulin injected subcutaneously (Humulin R or equivalent; Calbiochem insulin in the rat studies)
Hypoglycemia occasions requiring rescue treatment [8]: twelve | Treatment-related adverse events [8]: sixteen events | Adverse events / tolerability (Example 6: safety): No adverse events were observed | Change in C-peptide during treatment periods (plasma C-peptide; 15 IU s.c., 300 IU oral and 150 IU oral): no significant changes | C-peptide level, mean (plasma C-peptide; 10 minutes): 1.05 nmol/L | C-peptide level, mean (plasma C-peptide; 20 minutes): 1.07 nmol/L | C-peptide level, mean (plasma C-peptide; 30 minutes): 1.09 nmol/L | C-peptide level, mean (plasma C-peptide; 40 minutes): 1.11 nmol/L | C-peptide level, mean (plasma C-peptide; 50 minutes): 1.05 nmol/L | C-peptide level, mean (plasma C-peptide; 60 minutes): 1.04 nmol/L | C-peptide level, mean (plasma C-peptide; 75 minutes): 1.07 nmol/L | C-peptide level, mean (plasma C-peptide; 90 minutes): 1.03 nmol/L | C-peptide level, mean (plasma C-peptide; 105 minutes): 1.01 nmol/L | C-peptide level, mean (plasma C-peptide; 120 minutes): 0.99 nmol/L | C-peptide level, mean (plasma C-peptide; 150 minutes): 1.01 nmol/L | C-peptide level, mean (plasma C-peptide; 180 minutes): 0.99 nmol/L | C-peptide level, mean (plasma C-peptide; 210 minutes): 0.97 nmol/L | C-peptide level, mean (plasma C-peptide; 240 minutes): 0.94 nmol/L | C-peptide level, mean (plasma C-peptide; 300 minutes): 0.96 nmol/L | C-peptide level, mean (plasma C-peptide; 360 minutes): 0.92 nmol/L | C-peptide level, mean (plasma C-peptide; Time 0): 1.04 nmol/L | C-peptide level, mean (plasma C-peptide; −30 minutes): 1.05 nmol/L | C-peptide level, mean (plasma C-peptide; −60 minutes): 1.02 nmol/L
